# Measurements taken from patent US11242351B2, “Tricyclic inhibitors of the BCL6 BTB domain protein-protein interaction and uses thereof” (priority 2017, dated 2022).
# Like-named read-outs stand apart in the source and are kept apart here.
# Tests used:
# [1] = tested on: BCL6 reporter construct in SuDHL4-3×BCL6-TK-Luc cells; experiment: Cell-based luciferase assay (BCL6 reporter); details: 48 h, read-out: Luc IC50
# How it was run: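 SuDHL4 cells stably carrying a 3×BCL6-site TK-promoter firefly luciferase reporter, 15,000 cells/well, dosed over 10 concentrations (top 10 μM) and cultured two days at 37° C, 5% CO2. Luciferase luminescence read after room-temperature equilibration with neolite reagent.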
# [2] = tested on: Karpas422 cells; experiment: Tumor cell growth inhibition assay; assay type: cell-based; details: Homo sapiens, KARPAS-422, 144 h, read-out: GI Karpas EC50
# How it was run: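 Karpas422 cells were dosed over a 10-point concentration range (top 5 μM) and grown 6 days at 37 °C, 5% CO2, in Alpha-MEM with 10% FBS. Viability was read as ATPlite luminescence.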
# [3] = target: BCL6 BTB domain (biotin-thrombin-BCL6 amino acids 1-129) (Homo sapiens (Human), UniProt P41182); experiment: Surface Plasmon Resonance (SPR) assay; assay type: binding; details: Biacore T200, single cycle kinetic analysis
# Procedure: Surface Plasmon Resonance (SPR) Assay
# SPR studies were performed using a Biacore™ T200 instrument (GE Health Sciences Inc.). […] The Biacore flow rate was set at 100 μl/min. […] Curve fitting and KD calculations were performed with the Biacore T200 Evaluation software (GE Health Sciences Inc).
# [4] = SuDHL4-3×BCL6-TK-Luc cells, two days
# [5] = Karpas422 cells, six days, ATPlite
SMILES,"IC50 [1, 4] [nM]","EC50 [2, 5] [nM]",Kd [3] [nM],IC50 [1] [nM],EC50 [2] [nM]
"C[C@H]1CN(C)CCN1c1cc(NC(=O)Cn2cc(-c3cc(Cl)c(O)c(C(N)=O)c3)c3c(=O)n4c(nc32)CCC4)c(Cl)c(F)n1 [I-61, (S)-3-chloro-5-(1-(2-((3-chloro-6-(2,4-dimethylpiperazin-1-yl)-2-fluoropyridin-4-yl)amino)-2-oxoethyl)-4-oxo-4,6,7,8-tetrahydro-1H-dipyrrolo[1,2-a:2′,3′-d]pyrimidin-3-yl)-2-hydroxybenzamide]",41.7,22.2,3.71,–,–
"C[C@H]1COCCN1c1cc(NC(=O)Cn2cc(-c3cc(Cl)c(O)c(C(N)=O)c3)c3c(=O)n4c(nc32)CCC4)c(Cl)c(F)n1 [I-62, (S)-3-chloro-5-(1-(2-((3-chloro-2-fluoro-6-(3-methylmorpho-lino)pyridin-4-yl)amino)-2-oxoethyl)-4-oxo-4,6,7,8-tetra-hydro-1H-dipyrrolo [1,2-a:2′,3′-d]pyrimi-din-3-yl)-2-hydroxybenzamide]",78.5,31.2,7.17,–,–
"CC1Cc2nc3c(c(-c4cc(C(N)=O)c(O)c(F)c4F)cn3CC(=O)Nc3cc(N4CCN(C)C[C@@H]4C)nc(F)c3Cl)c(=O)n2C1 (stereo partly drawn) [I-63, 5-(1-(2-((3-chloro-6-((S)-2,4-dimethyl-piperazin-1-yl)-2-fluoropyridin-4-yl)amino)-2-oxoethyl)-7-methyl-4-oxo-4,6,7,8-tetrahydro-1H-dipyrrolo[1,2-a:2′,3′-d]pyrimidin-3-yl)-3,4-difluoro-2-hydroxy-benzamide]",110,120,10.2,–,–
"CC1Cc2nc3c(c(-c4cc(C(N)=O)c(O)c(F)c4F)cn3CC(=O)Nc3cc(N4CCOC[C@@H]4C)nc(F)c3Cl)c(=O)n2C1 (stereo partly drawn) [I-64, 5-(1-(2-((3-chloro-2-fluoro-6-((S)-3-methylmorpholino)pyridin-4-yl)amino)-2-oxoethyl)-7-methyl-4-oxo-4,6,7,8-tetrahydro-1H-dipyrrolo [1,2-a:2′,3′-d]pyrimidin-3-yl)-3,4-difluoro-2-hydroxybenzamide]",380,174,27.4,–,–
"CC1Cc2nc3c(c(-c4cc(Cl)c(O)c(C(N)=O)c4)cn3CC(=O)Nc3cc(N4CCN(C)C[C@@H]4C)nc(F)c3Cl)c(=O)n2C1 (stereo partly drawn) [I-65, 3-chloro-5-(1-(2-((3-chloro-6-((S)-2,4-dimethylpiperazin-1-yl)-2-fluoropyridin-4-yl)amino)-2-oxo-ethyl)-7-methyl-4-oxo-4,6,7,8-tetra-hydro-1H-dipyrrolo [1,2-a:2′,3′-d]pyrimi-din-3-yl)-2-hydroxy-benzamide]",46.8,42.1,6.28,–,–
"CC1Cc2nc3c(c(-c4cc(Cl)c(O)c(C(N)=O)c4)cn3CC(=O)Nc3cc(N4CCOC[C@@H]4C)nc(F)c3Cl)c(=O)n2C1 (stereo partly drawn) [I-66, 3-chloro-5-(1-(2-((3-chloro-2-fluoro-6-((S)-3-methylmor-pholino)pyridin-4-yl)amino)-2-oxo-ethyl)-7-methyl-4-oxo-4,6,7,8-tetra-hydro-1H-dipyrrolo [1,2-a:2′,3′-d]pyrimi-din-3-yl)-2-hydroxy-benzamide]",186,74.2,15.9,–,–
"C[C@H]1CN(C)CCN1c1cc(NC(=O)Cn2cc(-c3cc(C#N)c(O)c4c3OCO4)c3c(=O)n4c(nc32)CCC4)c(Cl)c(F)n1 [I-67, (S)-N-(3-chloro-6-(2,4-dimethyl-piperazin-1-yl)-2-fluoropyridin-4-yl)-2-(3-(6-cyano-7-hydroxybenzo[d][1,3]dioxol-4-yl)-4-oxo-4,6,7,8-tetrahydro-1H-dipyrrolo[1,2-a:2′,3′-d]pyrimidin-1-yl) acetamide]",–,–,6.72,541,874
"COc1c(-c2cn(CC(=O)Nc3cc(N4CCN(C)C[C@@H]4C)nc(F)c3Cl)c3nc4n(c(=O)c23)CCC4)cc(C(N)=O)c(O)c1OC [I-68, (S)-5-(1-(2-((3-chloro-6-(2,4-dimethylpiperazin-1-yl)-2-fluoro-pyridin-4-yl)amino)-2-oxoethyl)-4-oxo-4,6,7,8-tetrahydro-1H-dipyrrolo[1,2-a:2′,3′-d]pyrimidin-3-yl)-2-hydroxy-3,4-dimethoxy-benzamide]",–,–,31.3,3420,1620
"COc1c(-c2cn(CC(=O)Nc3cc(N4CCOC[C@@H]4C)ncc3Cl)c3nc4n(c(=O)c23)CCC4)cc(C(N)=O)c(O)c1OC [I-69, (S)-5-(1-(2-((5-chloro-2-(3-methylmorpholino)pyridin-4-yl)amino)-2-oxoethyl)-4-oxo-4,6,7,8-tetrahydro-1H-dipyrrolo[1,2-a:2′,3′-d]pyrimidin-3-yl)-2-hydroxy-3,4-dimethoxy-benzamide]",7970,10000,294,–,–
"COc1c(-c2cn(CC(=O)Nc3cc(N4CCOC[C@@H]4C)nc(F)c3Cl)c3nc4n(c(=O)c23)CCC4)cc(C(N)=O)c(O)c1OC [I-70, (S)-5-(1-(2-((3-chloro-2-fluoro-6-(3-methyl-morpholino)pyridin-4-yl)amino)-2-oxoethyl)-4-oxo-4,6,7,8-tetra-hydro-1H-dipyrrolo [1,2-a:2′,3′-d]pyrimi-din-3-yl)-2-hydroxy-3,4-dimethoxy-benzamide]",–,–,255,3820,4070
"CCOCCN1CCN(c2cc(NC(=O)Cn3cc(-c4cc(C(N)=O)c(O)c(OC)c4OC)c4c(=O)n5c(nc43)CCC5)c(Cl)c(F)n2)[C@@H](C)C1 [I-71, (S)-5-(1-(2-((3-chloro-6-(4-(2-ethoxyethyl)-2-methylpiperazin-1-yl)-2-fluoropyridin-4-yl)amino)-2-oxo-ethyl)-4-oxo-4,6,7,8-tetrahydro-1H-dipyrrolo [1,2-a:2′,3′-d]pyrimidin-3-yl)-2-hydroxy-3,4-dimethoxybenzamide]",1640,1370,181,–,–
"COc1c(-c2cn(CC(=O)Nc3cc(N4CCN(C5COC5)C[C@@H]4C)nc(F)c3Cl)c3nc4n(c(=O)c23)CCC4)cc(C(N)=O)c(O)c1OC [I-72, (S)-5-(1-(2-((3-chloro-2-fluoro-6-(2-methyl-4-(oxetan-3-yl)pipera-zin-1-yl)pyridin-4-yl)amino)-2-oxoethyl)-4-oxo-4,6,7,8-tetra-hydro-1H-dipyrrolo [1,2-a:2′,3′-d]pyrimi-din-3-yl)-2-hydroxy-3,4-dimethoxy-benzamide]",–,–,85.1,1560,429
"C[C@H]1CN(C)C[C@H](C)N1c1cc(NC(=O)Cn2cc(-c3cc(C(N)=O)c(O)c(F)c3F)c3c(=O)n4c(nc32)CCC4)c(Cl)c(F)n1 [I-73, 5-(1-(2-((3-chloro-2-fluoro-6-((2S,6S)-2,4,6-trimethyl-piperazin-1-yl)pyridin-4-yl)amino)-2-oxo-ethyl)-4-oxo-4,6,7,8-tetrahydro-1H-dipyrrolo [1,2-a:2′,3′-d]pyrimidin-3-yl)-3,4-difluoro-2-hydroxybenzamide]",–,–,58.6,1050,648
"NC(=O)c1cc(-c2cn(CC(=O)Nc3cc(N4CCCC4)nc(F)c3Cl)c3nc4n(c(=O)c23)CCC4)cc(Cl)c1O [I-74, 3-chloro-5-(1-(2-((3-chloro-2-fluoro-6-(pyrrolidin-1-yl)pyridin-4-yl)amino)-2-oxo-ethyl)-4-oxo-4,6,7,8-tetrahydro-1H-dipyrrolo [1,2-a:2′,3′-d]pyrimidin-3-yl)-2-hydroxy-benzamide]",148,210,14.8,–,–
"COCCN1CCN(c2cc(NC(=O)Cn3cc(-c4cc(Cl)c(O)c(C(N)=O)c4)c4c(=O)n5c(nc43)CCC5)c(Cl)c(F)n2)[C@@H](C)C1 [I-75, (S)-3-chloro-5-(1-(2-((3-chloro-2-fluoro-6-(4-(2-methoxyethyl)-2-methylpiperazin-1-yl)pyridin-4-yl)amino)-2-oxoethyl)-4-oxo-4,6,7,8-tetra-hydro-1H-dipyrrolo [1,2-a:2′,3′-d]pyrimi-din-3-yl)-2-hydroxy-benzamide]",36.7,48.9,3.7,–,–
"NC(=O)c1cc(-c2cn(CC(=O)Nc3cc(N4CCCC4)nc(F)c3Cl)c3nc4n(c(=O)c23)CCC4)cc(F)c1O [I-76, 5-(1-(2-((3-chloro-2-fluoro-6-(pyrrolidin-1-yl)pyridin-4-yl)amino)-2-oxoethyl)-4-oxo-4,6,7,8-tetrahydro-1H-dipyrrolo[1,2-a:2′,3′-d]pyrimidin-3-yl)-3-fluoro-2-hydroxy-benzamide]",85.1,92.8,3.02,–,–
"COCCN1CCN(c2cc(NC(=O)Cn3cc(-c4cc(F)c(O)c(C(N)=O)c4)c4c(=O)n5c(nc43)CCC5)c(Cl)c(F)n2)[C@@H](C)C1 [I-77, (S)-5-(1-(2-((3-chloro-2-fluoro-6-(4-(2-methoxyethyl)-2-methylpiperazin-1-yl)pyridin-4-yl)amino)-2-oxoethyl)-4-oxo-4,6,7,8-tetrahydro-1H-dipyrrolo[1,2-a:2′,3′-d]pyrimidin-3-yl)-3-fluoro-2-hydroxy-benzamide]",27.4,20.7,1.42,–,–
"CC1Cc2nc3c(c(-c4cc(F)c(O)c(C(N)=O)c4)cn3CC(=O)Nc3cc(N4CCN(C)C[C@@H]4C)nc(F)c3Cl)c(=O)n2C1 (stereo partly drawn) [I-78, 5-(1-(2-((3-chloro-6-((S)-2,4-dimethyl-piperazin-1-yl)-2-fluoropyridin-4-yl)amino)-2-oxoethyl)-7-methyl-4-oxo-4,6,7,8-tetrahydro-1H-dipyrrolo[1,2-a:2′,3′-d]pyrimidin-3-yl)-3-fluoro-2-hydroxy-benzamide]",30.7,21,2.03,–,–
